Assay results reported in US20240034743A9, “TRICYCLIC COMPOUNDS AS EGFR INHIBITORS” (QILU PHARMACEUTICAL CO., LTD., priority 2020, published 2024).
Where two headings read alike, the source gives them in different places.

Experiments:
[1] = tested on: A431 cells (EGFR WT); experiment: A431 cell proliferation inhibition assay (CellTiter-Glo); format: cell-based
Outline: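 CellTiter-Glo luminescence quantified growth after 72 h treatment with serially diluted compounds (final DMSO 0.1%), following a 24 h attachment period at 37° C, 5% CO2. Signal read after 30 min dark incubation at room temperature, with half-maximal growth inhibition reported as IC50.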

[2] = molecular target: EGFR WT (wild type EGFR) (Homo sapiens (Human), UniProt P00533); experiment: In vitro enzymatic TR-FRET (HTRF KinEASE-TK) kinase assay, EGFR WT; format: biochemical; details: kinase activity, TR-FRET; read-out: EGFR (WT) IC50
Outline: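 IC50 derived from the 665/615 nm TR-FRET ratio after 1 h with streptavidin-XL665 and Cryptate-labelled TK antibody. Kinase reaction ran 40 min at room temperature with biotin-TK substrate and ATP, following 10 min compound–enzyme preincubation. Buffer: 5 mM MgCl2, 1 mM MnCl2, 1 mM DTT.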

[3] = tested on: Ba/F3_L858R/T790M/C797S cells; experiment: Ba/F3_L858R/T790M/C797S cell proliferation inhibition assay (CellTiter-Glo); format: cell-based
Outline: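 Proliferation IC50 derived from CellTiter-Glo luminescence in Ba/F3 cells expressing triple-mutant EGFR (L858R/T790M/C797S). Cells (700/well) incubated 72 h with graded compound doses at 0.1% DMSO final, 37 °C, 5% CO2; reagent developed 30 min at room temperature in the dark.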

[4] = molecular target: EGFR L858R/T790M/C797S (Homo sapiens (Human), UniProt P00533, C797S/L858R/T790M); experiment: In vitro enzymatic TR-FRET (HTRF KinEASE-TK) kinase assay, EGFR L858R/T790M/C797S; format: biochemical; details: kinase activity
Method: (I) In Vitro Enzymatic Experiment for EGFR WT and EGFR L858R/T790M/C797S
In the assay, the inhibition effect of the compound on the kinase activity of EGFR WT (wild type EGFR) and EGFR L858R/T790M/C797S was tested by adopting a time-resolved fluorescence resonance energy transfer (TR-FRET) method, and half maximal inhibitory concentration IC50 of the compound on the kinase activity of EGFR was obtained.
EGFR recombinase and EGFR L858R/T790M/C797S recombinase, purchased from Signalchem.
HTRF KinEASE-TK kit, purchased from Cisbio.
DTT, MnCl2, and MgCl2, purchased from Sigma.
ATP, purchased from Promega.
Brigatinib, purchased from Selleck.
1) 1× working solution was prepared: 5 mM MgCl2; 1 mM DTT; 1 mM MnCl2 and 1× kinase buffer (in kit).
2) […] of gradiently-diluted compound was transferred to a 384-well plate using Echo 550 (Labcyte).
3) 5 μL of 2× EGFR WT or EGFR L858R/T790M/C797S recombinase solution was added to the 384-well plate, and the plate was incubated at room temperature for 10 min.
4) 5 μL of 2× TK-substrate-biotin substrate solution (containing ATP) was added to the 384-well plate, and the plate was incubated at room temperature for 40 min.
5) 5 μL of assay solution containing Sa-XL 665 HTRF and 5 μL of TK-antibody-Cryptatewas were added to the plate, and the plate was incubated at room temperature for 1 h.
6) The fluorescence signal values at 615 nm and 665 nm were measured for each well using an Envision microplate reader (PerkinElmer).
7) The ratio of fluorescence signal values at 665 nm and 615 nm was calculated for each well.
8) Data analysis was performed using GraphPad Prism software to give the IC50 for compounds.

[5] = tested on: Ba/F3_Del19/T790M/C797S cells; experiment: Ba/F3_Del19/T790M/C797S cell proliferation inhibition assay (CellTiter-Glo); format: cell-based
Outline: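 IC50 for growth inhibition came from CellTiter-Glo chemiluminescence after a 72 h, 37° C compound exposure. Ba/F3_Del19/T790M/C797S cells were plated at 700/well, and compound was dosed in gradient with 0.1% final DMSO.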

[6] = Homo sapiens, A-431, cell proliferation, 72 h, CellTiter-Glo, read-out: A431 EGFR WT IC50
[7] = Mus musculus, BaF3, cell proliferation, 72 h, CellTiter-Glo, read-out: Ba/F3 (L858R/T790M/C797S) IC50
[8] = Mus musculus, BaF3, cell proliferation, 72 h, CellTiter-Glo, read-out: Ba/F3 (Del19/T790M/C797S) IC50
[9] = Homo sapiens, A-431, 72 h, read-out: A431 EGFR WT IC50(nM)
[10] = Mus musculus, BaF3, 72 h, read-out: Ba/F3 (L858R/T790M/C797S) IC50(nM)
[11] = Mus musculus, BaF3, 72 h, read-out: Ba/F3 (Del19/T790M/C797S) IC50(nM)

EGFR WT (wild type EGFR), sequence (P00533 25-1210): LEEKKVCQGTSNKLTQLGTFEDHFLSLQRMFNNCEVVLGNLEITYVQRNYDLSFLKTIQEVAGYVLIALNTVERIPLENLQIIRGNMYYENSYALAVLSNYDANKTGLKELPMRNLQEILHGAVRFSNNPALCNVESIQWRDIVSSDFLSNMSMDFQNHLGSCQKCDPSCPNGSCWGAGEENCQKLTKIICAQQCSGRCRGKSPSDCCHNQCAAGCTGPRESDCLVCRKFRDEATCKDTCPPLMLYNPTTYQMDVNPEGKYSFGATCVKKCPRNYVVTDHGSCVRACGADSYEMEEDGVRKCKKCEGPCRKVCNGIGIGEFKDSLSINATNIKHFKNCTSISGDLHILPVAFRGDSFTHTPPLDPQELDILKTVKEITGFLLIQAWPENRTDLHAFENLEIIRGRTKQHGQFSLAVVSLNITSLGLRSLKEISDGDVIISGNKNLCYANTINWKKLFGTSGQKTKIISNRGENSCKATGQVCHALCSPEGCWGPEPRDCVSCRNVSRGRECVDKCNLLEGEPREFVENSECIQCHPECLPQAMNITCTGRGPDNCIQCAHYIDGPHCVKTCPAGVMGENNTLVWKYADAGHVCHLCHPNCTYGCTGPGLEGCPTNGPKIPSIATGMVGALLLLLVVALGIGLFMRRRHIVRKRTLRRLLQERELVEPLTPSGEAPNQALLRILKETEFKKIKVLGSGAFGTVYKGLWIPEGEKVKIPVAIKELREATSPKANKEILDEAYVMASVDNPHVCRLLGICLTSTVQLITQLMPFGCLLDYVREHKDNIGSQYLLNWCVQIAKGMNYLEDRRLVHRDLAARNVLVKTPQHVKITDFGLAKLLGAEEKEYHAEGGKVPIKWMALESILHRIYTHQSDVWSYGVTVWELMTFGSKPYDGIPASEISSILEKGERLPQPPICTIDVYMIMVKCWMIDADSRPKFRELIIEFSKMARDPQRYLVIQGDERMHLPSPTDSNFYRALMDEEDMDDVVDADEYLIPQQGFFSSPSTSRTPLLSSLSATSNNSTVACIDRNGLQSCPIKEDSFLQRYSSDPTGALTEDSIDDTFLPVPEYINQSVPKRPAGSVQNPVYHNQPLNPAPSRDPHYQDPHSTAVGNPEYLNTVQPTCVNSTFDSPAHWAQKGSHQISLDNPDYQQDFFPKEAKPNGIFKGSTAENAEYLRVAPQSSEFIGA
EGFR L858R/T790M/C797S, sequence (P00533 25-1210 T790M/C797S/L858R): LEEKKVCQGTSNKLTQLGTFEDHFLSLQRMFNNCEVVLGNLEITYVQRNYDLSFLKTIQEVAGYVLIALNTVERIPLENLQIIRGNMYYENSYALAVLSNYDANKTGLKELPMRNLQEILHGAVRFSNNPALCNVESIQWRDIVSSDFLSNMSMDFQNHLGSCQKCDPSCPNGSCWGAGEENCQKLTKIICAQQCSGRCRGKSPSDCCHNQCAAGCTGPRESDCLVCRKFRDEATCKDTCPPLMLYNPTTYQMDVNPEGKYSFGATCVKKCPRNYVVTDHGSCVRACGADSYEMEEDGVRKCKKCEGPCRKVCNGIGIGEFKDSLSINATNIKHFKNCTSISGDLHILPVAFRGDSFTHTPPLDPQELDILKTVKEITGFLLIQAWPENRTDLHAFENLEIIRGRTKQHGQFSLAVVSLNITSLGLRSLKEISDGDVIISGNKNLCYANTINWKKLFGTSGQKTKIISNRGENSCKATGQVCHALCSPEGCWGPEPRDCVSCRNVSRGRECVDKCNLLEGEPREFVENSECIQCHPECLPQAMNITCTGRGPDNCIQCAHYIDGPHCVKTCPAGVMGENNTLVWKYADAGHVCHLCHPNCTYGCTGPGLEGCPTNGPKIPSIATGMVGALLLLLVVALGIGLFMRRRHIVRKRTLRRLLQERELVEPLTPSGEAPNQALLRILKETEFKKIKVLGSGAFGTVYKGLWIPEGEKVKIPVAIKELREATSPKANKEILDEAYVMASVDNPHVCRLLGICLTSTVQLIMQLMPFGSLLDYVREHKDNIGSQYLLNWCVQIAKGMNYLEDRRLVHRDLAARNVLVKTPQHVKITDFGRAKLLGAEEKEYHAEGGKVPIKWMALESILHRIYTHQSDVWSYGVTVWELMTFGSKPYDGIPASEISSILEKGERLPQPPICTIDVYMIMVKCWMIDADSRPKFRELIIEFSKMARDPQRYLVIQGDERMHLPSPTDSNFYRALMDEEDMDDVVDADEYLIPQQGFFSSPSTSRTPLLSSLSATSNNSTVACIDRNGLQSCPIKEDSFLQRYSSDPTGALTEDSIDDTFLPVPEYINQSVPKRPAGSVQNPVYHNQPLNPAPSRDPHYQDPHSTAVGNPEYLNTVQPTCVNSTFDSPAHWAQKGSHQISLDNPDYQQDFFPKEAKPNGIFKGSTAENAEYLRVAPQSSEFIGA

Structure (SMILES) | IC50 ([1]; cell proliferation, 72 h, CellTiter-Glo, read-out: A431 EGFR WT IC50) | IC50 [2] | IC50 ([3]; cell proliferation, 72 h, CellTiter-Glo, read-out: Ba/F3 (L858R/T790M/C797S) IC50) | IC50 [4] | IC50 ([5]; cell proliferation, 72 h, CellTiter-Glo, read-out: Ba/F3 (Del19/T790M/C797S) IC50) | IC50 [1, 6] | IC50 [3, 7] | IC50 [5, 8] | IC50 [1, 9] | IC50 [3, 10] | IC50 [5, 11]
COc1cc2c(cc1Nc1ncc(Br)c(Nc3ccccc3P(C)(C)=O)n1)-c1cn(C3COC3)nc1CCN2C(C)C [Compound 77B] | 100 to 1000 nM | 100 to 1000 nM | 50 to 100 nM | 1 to 10 nM | 50 to 100 nM |  |  |  |  |  | 
COc1cc2c(cc1Nc1ncc(Br)c(Nc3ccccc3P(C)(C)=O)n1)-c1cnn(C)c1CCC2N(C)C (stereo not shown) [Compound 78] |  | 1 to 10 nM |  | < 1 nM |  | 100 to 1000 nM | 10 to 50 nM | < 10 nM |  |  | 
COc1nc2c(cc1Nc1ncc(Br)c(Nc3ccc4nccnc4c3P(C)(C)=O)n1)-c1cnn(C)c1CCN2C [Compound 80] |  | 1 to 10 nM |  | < 1 nM |  | 100 to 1000 nM | < 10 nM | < 10 nM |  |  | 
COc1nc2c(cc1Nc1ncc(Br)c(Nc3ccc4nccnc4c3P(C)(C)=O)n1)-c1cnn(C)c1CCN2C(C)C [Compound 82] |  | 1 to 10 nM |  | 1 to 10 nM |  |  |  |  | > 1000 nM | 10 to 50 nM | 10 to 50 nM
COc1cc2c(cc1Nc1ncc(Br)c(Nc3cccnc3P(C)(C)=O)n1)-c1cnn(C)c1CCN2C(C)C [Compound 83] |  | 1 to 10 nM |  | < 1 nM |  | 100 to 1000 nM | 10 to 50 nM | < 10 nM |  |  | 
COc1nc2c(cc1Nc1ncc(Br)c(Nc3ccc4nccnc4c3NS(C)(=O)=O)n1)-c1cnn(C)c1CCN2C(C)C [Compound 86] |  | 1 to 10 nM |  | 1 to 10 nM |  | 100 to 1000 nM | 10 to 50 nM | < 10 nM |  |  | 
COc1cc2c(cc1Nc1ncc(Br)c(Nc3ccc4nccnc4c3P3(=O)CCN(C)CC3)n1)-c1cnn(C)c1CCN2C(C)C [Compound 91] |  | < 1 nM |  | < 1 nM |  | 100 to 1000 nM | 10 to 50 nM | < 10 nM |  |  | 
COc1cc2c(cc1Nc1ncc(Br)c(Nc3ccccc3P(C)(C)=O)n1)-c1cccnc1CCN2C [Compound 99] |  | 50 to 100 nM |  | 1 to 10 nM |  | 100 to 1000 nM | 10 to 50 nM | 10 to 50 nM |  |  | 
COc1cc2c(cc1Nc1nccc(Nc3ccccc3P(C)(C)=O)n1)-c1cnn(C)c1CCN2C(C)C [Compound 102] |  | 10 to 50 nM |  | < 1 nM |  | > 1000 nM | 100 to 1000 nM | 50 to 100 nM |  |  | 
COc1nc2c(cc1Nc1ncc(Br)c(Nc3ccc4nccnc4c3NS(C)(=O)=O)n1)-c1cnn(C)c1CCN2C [Compound 107] |  | < 1 nM |  | < 1 nM |  | 100 to 1000 nM | < 10 nM | < 10 nM |  |  | 
COc1cc2c(cc1Nc1ncc(Br)c(Nc3ccc4nccnc4c3P(C)(C)=O)n1)-c1cccnc1CCN2C [Compound 108] |  | 10 to 50 nM |  | < 1 nM |  | 100 to 1000 nM | 10 to 50 nM | < 10 nM |  |  | 
COc1cc2c(cc1Nc1ncc(Br)c(Nc3ccc4nccnc4c3NS(C)(=O)=O)n1)-c1cccnc1CCN2C(C)C [Compound 116] |  | 50 to 100 nM |  | 1 to 10 nM |  | 100 to 1000 nM | 50 to 100 nM | 10 to 50 nM |  |  | 
COc1cc2c(cc1Nc1ncc(Br)c(Nc3ccc4nccnc4c3N3CCCS3(=O)=O)n1)-c1cnn(C)c1CCN2C(C)C [Compound 118] |  | 10 to 50 nM |  | 1 to 10 nM |  | 100 to 1000 nM | 10 to 50 nM | 10 to 50 nM |  |  | 
COc1cc2c(cc1Nc1ncc(Br)c(Nc3ccc4nccnc4c3NS(C)(=O)=O)n1)-c1cnn(C)c1CCN2C(C)(C)CF [Compound 120] |  | 10 to 50 nM |  | 1 to 10 nM |  | 100 to 1000 nM | 10 to 50 nM | 10 to 50 nM |  |  | 
COc1cc2c(cc1Nc1ncc(Br)c(Nc3ccccc3NS(C)(=O)=O)n1)-c1cnn(C)c1CCN2 [Compound 121] |  | 100 to 1000 nM |  | 1 to 10 nM |  |  |  |  | 100 to 1000 nM | < 10 nM | < 10 nM
COc1cc2c(cc1Nc1ncc(Br)c(Nc3ccccc3N(C(C)C)S(C)(=O)=O)n1)-c1cnn(C)c1CCN2 [Compound 122] |  | 50 to 100 nM |  | 1 to 10 nM |  |  |  |  | 100 to 1000 nM | 10 to 50 nM | 10 to 50 nM
COc1cc2c(cc1Nc1ncc(Br)c(Nc3ccc4nccnc4c3NS(C)(=O)=O)n1)-c1cnn(C)c1CCN2CC(F)(F)F [Compound 125] |  | > 1000 nM |  | 100 to 1000 nM |  | 100 to 1000 nM | 10 to 50 nM | < 10 nM |  |  | 
COc1cc2c(cc1Nc1ncc(Br)c(Nc3ccc4nccnc4c3NS(C)(=O)=O)n1)-c1cnn(C)c1CCN2C1CCOCC1 [Compound 130] |  | 1 to 10 nM |  | < 1 nM |  | 100 to 1000 nM | < 10 nM | < 10 nM |  |  | 
CCN(c1c(Nc2nc(Nc3cc4c(cc3OC)N(C(C)C)CCc3c-4cnn3C)ncc2Br)ccc2nccnc12)S(C)(=O)=O [Compound 134] |  | 10 to 50 nM |  | 1 to 10 nM |  |  |  |  | 100 to 1000 nM | 10 to 50 nM | < 10 nM
COc1cc2c(cc1Nc1ncc(Br)c(Nc3ccc4nccnc4c3NS(C)(=O)=O)n1)-c1cnn(C)c1CCN2C1CCC1 [Compound 135] |  | 1 to 10 nM |  | 1 to 10 nM |  |  |  |  | 100 to 1000 nM | < 10 nM | < 10 nM
